The record followed here is patent US10314819B2, “Solid state forms of Eluxadoline” (TEVA PHARMACEUTICALS INTERNATIONAL GMBH, priority 2015, dated 2019).

Like-named read-outs stand apart in the source and are kept apart here.

Common to all, as to assay type: physicochemical
Series [1] is described as follows: % weight loss / water content (TGA, KF) after storage at various relative humidity. Conditions: for % weight loss/water cont. - after 1 M, TGA: TGA up to 190° C. How it is done:
(§1) The obtained amorphous form was stored at various conditions, and the PXRD was analyzed after 3 and 7 days:
(§2) The obtained form alpha was stored at various conditions, and the PXRD was analyzed after 3 and 8 days:
(§3) The obtained amorphous form was stored at various conditions of relative humidity, and the PXRD was obtained after 1M (Table 4):
(§4) The obtained amorphous form was stored at various conditions, and the PXRD was obtained after 2M (Table 5):
(§5) XRPD pattern is shown in FIG. 16; SEM image is shown in FIG. 17; DSC thermogram is shown in FIG. 21 and TGA thermogram is shown in FIG. 22. The obtained form alpha was stored at various conditions, and the PXRD was obtained after 8, 14, and 21 days (Table 6): […]

Series [2] in a line: Specific surface area (SSA), BET nitrogen. Here is the method: Specific Surface Area (SSA) measurements (Bet Nitrogen) were determined using a Micromeritics ASAP 2000, specific surface area analyzer. Samples were subjected to the BET nitrogen adsorption analysis to determine the specific surface of the samples.
Sample tube: 10 cc bulb with ½″ stem
Sample mass: Approximately ½ full cell
Sample preparation: Degassing with nitrogen
Outgassing conditions: 40° C. (30 min)
Isothermal collection point: 20 adsorption points, in the range 0-1 P/P0
Isothermal data analysis range: 5 point BET in the range 0.05-0.20 P/P0
Equilibration interval: 5 s
Equilibration time out: 600 s

Series [3] in a line: Polymorph stability on storage at various relative humidity (PXRD). Here is the method: Sample after being powdered in a mortar and pestle is applied directly on a silicon plate holder. The X-ray powder diffraction pattern was measured with Philips X'Pert PRO X-ray powder diffractometer, equipped with Cu irradiation source=1.54184 Å(Ångström), X'Celerator (2.022° 2θ) detector. Scanning parameters: angle range: 3-40 deg., step size 0.0167, time per step 37 s, continuous scan.
as §1
The obtained pure amorphous form was stored at various conditions, and the PXRD was analyzed after 3 and 7 days:
as §2, §3, §4, §5

A short description of series [4]: Flow function, FT4 Powder Rheometer, Freeman shear test 9 kPa. Conditions: PSD/μm 10/60/164. How it is done: The Flow function was determined by using FT4 Powder Rheometer, Freeman FT4 instrument, and standard Freeman shear test—9 kPa (using small cell 1 ml), according to method below:
1. Compact to 9 kPa for 60 s
2. Pre shear hold 7 kPa for 16 s
3. Shear test at 7 kPa (Shear at 18°/min for 10°, auto detected peak torque yes)
4. Pre shear hold 6 kPa for 16 s
5. Shear test at 6 kPa (Shear at 18°/min for 10°, auto detected peak torque yes)
6. Pre shear hold 5 kPa for 16 s
7. Shear test at 5 kPa (Shear at 18°/min for 10°, auto detected peak torque yes)
8. Pre shear hold 4 kPa for 16 s
9. Shear test at 4 kPa (Shear at 18°/min for 10°, auto detected peak torque yes)
10. Pre shear hold 3 kPa for 16 s
11. Shear test at 3 kPa (Shear at 18°/min for 10°, auto detected peak torque yes)

A short description of series [5]: Thermal stability, heating in a vacuum dryer at 50° C. and 100° C. (XRPD, HPLC). Particulars: for XRPD / HPLC/Area % (start: 99.88): vacuum dryer. How it is done:
Samples of Eluxadoline alpha (5 g) were subjected to heating in a vacuum dryer at 50° C. and 100° C., for different periods of time.

A short description of series [6]: Dissolution in 50 mM phosphate buffer pH = 7.4 at 37° C. Particulars: 50 mM phosphate buffer pH = 7.4, 37° C. Here is the method: Samples were prepared and analysed in duplicate. About 20 mg of each sample were weighed into 500 ml Erlenmeyer flask, 200 ml of 50 mM phosphate buffer pH=7.4, previously heated to 37° C. were added and flasks were shaken at 110 rpm for 60 minutes at 37±0.2° C. in an incubator shaker. 3 ml aliquots were taken at 5, 10, 20, 30, 45 and 60 min, filtered through 0.45 μm Chromafil Xtra RC 45/25 syringe filter and analysed by UV/VIS spectrometer (absorbance at 203 nm).
The measurement was performed using the following instruments: • pH/Ion meter PHM 240, MeterLab, Radiometer Analytical • Incubator shaker Innova 4080, New Brunswick Scientific, 19 mm diameter circular orbit • UV/VIS spectrometer Varian Cary 50 Bio, 1 mm quartz cell Results of Eluxadoline samples dissolution in 50 mM phosphate buffer pH=7.4 are summarized in Table 8 below: […]

On to `COc1ccc(CN(C(=O)[C@@H](N)Cc2c(C)cc(C(N)=O)cc2C)[C@@H](C)c2nc(-c3ccccc3)c[nH]2)cc1C(=O)O` [Example 21], for which the “% weight loss/water cont. after 2 M KF” value in series [1] (0% RH, 2 M) amounted to 8.56%; in series [1] (20% RH, 2 M) it was 9.17%; in series [1] (40% RH, 2 M), 10.50%; in series [1] (60% RH, 2 M), 11.93%; in series [1] (80% RH, 2 M), 14.15%; in series [1] (100% RH, 2 M) it was 14.54%. The “% weight loss/water cont. after 2 M KF” value in series [1] (As is) is 4.42%. This molecule returned an SSA in series [2] of 1.243 m^2/g. In addition, the “PXRD results - after 2 M” value in series [3] (0% RH, 2 M) is on record as “amorphous”; in series [3] (20% RH, 2 M), “amorphous”; in series [3] (40% RH, 2 M) it was “amorphous”; in series [3] (60% RH, 2 M), “amorphous”; in series [3] (80% RH, 2 M), “amorphous”; in series [3] (100% RH, 2 M), “amorphous”. Besides, the “PXRD results - after 2 M” value in series [3] (As is) was “amorphous”. Besides, in series [4], the “Classification of powder flowability after Jenike” value is recorded as “Free-flowing (10 < FF)”. Further, the “Flow Function, (FF)” value in series [4] (shear test 9 kPa) worked out at 10.08.

On to `COc1ccc(CN(C(=O)[C@@H](N)Cc2c(C)cc(C(N)=O)cc2C)[C@@H](C)c2nc(-c3ccccc3)c[nH]2)cc1C(=O)O` [Example 12, 5-(((S)-2-amino-3-(4-carbamoyl-2,6-dimethylphenyl)-N—((S)-1-(4-phenyl-1H-imidazol-2-yl)ethyl)propanamido)methyl)-2-methoxybenzoic acid], for which, in series [1] (as is, TGA up to 121° C.), the “% weight loss after 8 days by TGA” value is listed as “TGA* = 1.29%”. In addition, the “PXRD results after 8 days” value in series [3] (0% RH), in series [3] (20% RH), in series [3] (40% RH), in series [3] (60% RH) and in series [3] (80% RH) was “alpha” in each case.

For `COc1ccc(CN(C(=O)[C@@H](N)Cc2c(C)cc(C(N)=O)cc2C)[C@@H](C)c2nc(-c3ccccc3)c[nH]2)cc1C(=O)O` [Eluxadoline alpha form, Eluxadoline], the XRPD entry in series [5] (50 ° C., 1 h) is “alpha”; in series [5] (50 ° C., 2 h) it was “alpha”; in series [5] (50 ° C., 3 h) it was “alpha”; in series [5] (100 ° C., 1 h), “alpha”; in series [5] (100 ° C., 2 h), “alpha”; in series [5] (100 ° C., 3 h), “alpha”. The “HPLC/Area % (start: 99.88)” value in series [5] (50 ° C., 3 h) was found to be 99.91 Area %; in series [5] (100 ° C., 3 h) it was 99.91 Area %. In addition, the “stability by XRPD and HPLC on heating” value in series [5] (vacuum dryer at 50° C. and 100° C., different periods of time) was “stable”. Further, in series [2] (listed as Eluxadoline form alpha), the SSA entry is recorded as “about 9.63 m^2/g”.

Take `COc1ccc(CN(C(=O)[C@@H](N)Cc2c(C)cc(C(N)=O)cc2C)[C@@H](C)c2nc(-c3ccccc3)c[nH]2)cc1C(=O)O` [Example 10, Eluxadoline]: the “% weight loss/water cont. - after 7 days, TGA” value was “TGA-7.96%” in series [1] (0% RH, 7 days); 7.96% in series [1] (20% RH, 7 days); 8.15% in series [1] (40% RH, 7 days); 8.88% in series [1] (60% RH, 7 days); 11.88% in series [1] (80% RH, 7 days); 15.03% in series [1] (100% RH, 7 days). Besides, the “% weight loss/water cont. - after 7 days, TGA” value in series [1] (As is) was “TGA-5.97%”. The “% weight loss/water cont. - after 7 days, KF” value in series [1] (20% RH, 7 days) stood at 9.01%; in series [1] (40% RH, 7 days) it was 9.11%; in series [1] (60% RH, 7 days), 9.91%; in series [1] (80% RH, 7 days), 13.30%; in series [1] (100% RH, 7 days), 15.69%. For the same molecule, the “PXRD results - after 7 days” value in series [3] (0% RH, 7 days) is on record as “amorphous”; in series [3] (20% RH, 7 days) it was “amorphous”; in series [3] (40% RH, 7 days), “amorphous”; in series [3] (60% RH, 7 days) it was “amorphous”; in series [3] (80% RH, 7 days), “amorphous”; in series [3] (100% RH, 7 days) it was “amorphous”. For the same molecule, the “PXRD results - after 7 days” value in series [3] (As is) is given as “amorphous”.

As for `COc1ccc(CN(C(=O)[C@@H](N)Cc2c(C)cc(C(N)=O)cc2C)[C@@H](C)c2nc(-c3ccccc3)c[nH]2)cc1C(=O)O` [Example 20], the “% weight loss/water cont. - after 1 M, TGA” value in series [1] (0% RH, 1 M) is on record as “TGA-7.42%”; in series [1] (20% RH, 1 M), “TGA-8.42%”; in series [1] (40% RH, 1 M), “TGA-9.34%”; in series [1] (60% RH, 1 M) it was “TGA-10.36%”; in series [1] (80% RH, 1 M), “TGA-12.89%”; in series [1] (100% RH, 1 M), “TGA-15.23%”. Besides, in series [1] (As is), the “% weight loss/water cont. - after 1 M, TGA” value is “TGA-5.79%”. Besides, the “PXRD results - after 1 M” value is given as “amorphous” in series [3] (0% RH, 1 M); “amorphous” in series [3] (20% RH, 1 M); “amorphous” in series [3] (40% RH, 1 M); “amorphous” in series [3] (60% RH, 1 M); “amorphous” in series [3] (80% RH, 1 M); “amorphous” in series [3] (100% RH, 1 M). Besides, the “PXRD results - after 1 M” value in series [3] (As is) is listed as “amorphous”. The “% dissolved” value in series [6] (5 min) was found to be 63.21%; in series [6] (10 min), 81.56%; in series [6] (20 min), 91.46%; in series [6] (30 min), 93.81%; in series [6] (45 min) it was 94.48%; in series [6] (60 min), 94.50%.

Take `COc1ccc(CN(C(=O)[C@@H](N)Cc2c(C)cc(C(N)=O)cc2C)[C@@H](C)c2nc(-c3ccccc3)c[nH]2)cc1C(=O)O` [Example 11, Eluxadoline]: the “PXRD results after 7 days” value in series [3] (0% RH, 7 days) is “amorphous”; in series [3] (20% RH, 7 days), “amorphous”; in series [3] (40% RH, 7 days), “amorphous”; in series [3] (60% RH, 7 days), “amorphous”; in series [3] (80% RH, 7 days), “amorphous”; in series [3] (100% RH, 7 days), “amorphous”.

Take `COc1ccc(CN(C(=O)[C@@H](N)Cc2c(C)cc(C(N)=O)cc2C)[C@@H](C)c2nc(-c3ccccc3)c[nH]2)cc1C(=O)O` [amorphous Eluxadoline, Eluxadoline]: the “changes of samples exposed to RH (stability of amorphous form)” value in series [3] (RH 0-10% for a 7 day period) was “did not show any changes”.
